Entries after “also recorded” stand apart in the source; their conditions may differ. Read-outs that look alike come from different tables or passages of the source.
Experiments:
[1] = biological target: T1, Human H3 Receptor (Homo sapiens, UniProt Q9Y5N1); test: Cyclic AMP accumulation, SK-N-MC cells with reporter construct and human H3 receptor (pA2); type: cell-based; settings: pA2, average of results
T1 construct: expressed in transfected cells
Protocol: Cells were grown to about 70% to 80% confluence and removed from the plate with trypsin and pelleted in a clinical centrifuge. […] One μg supercoiled H3 receptor cDNA was added to the cells and mixed gently. The voltage for the electroporation was set at 0.25 kV and the capacitance was set at 960 μF. After electroporation the cells were diluted with 10 mL of complete media and were plated onto four 10 cm dishes at the following ratios: 1:20, 1:10, 1:5, and 1:2. […] Colonies that survived selection were grown and tested. SK-N-MC cells were used because they give efficient coupling for inhibition of adenylate cyclase. The clones that gave the most robust inhibition of adenylate cyclase in response to histamine were used for further study.
Sublines of SK-N-MC cells were created that expressed a reporter construct and the human H3 receptor.

[2] = Measured pKa, log P and log D (determined by pION, Inc.); type: physicochemical; settings: for pKa: read-out: pKa (meas.)
Protocol: Measured pKa, log P, and log D values were determined by pION, Inc. (Woburn, Mass.).

[3] = biological target: T1, Human H3 Receptor; test: [3H]-N-Methylhistamine binding, membranes of H3 receptor-expressing SK-N-MC cells; settings: 0.8 nM [3H]-N-methylhistamine, 60 min at 25° C., average of results; read-out: Ki
Protocol: Cells were grown to about 70% to 80% confluence and removed from the plate with trypsin and pelleted in a clinical centrifuge. The pellet was then re-suspended in 400 μL of complete media and transferred to an electroporation cuvette with a 0.4 cm gap between the electrodes (Bio-Rad #165-2088). One μg supercoiled H3 receptor cDNA was added to the cells and mixed gently. The voltage for the electroporation was set at 0.25 kV and the capacitance was set at 960 μF. After electroporation the cells were diluted with 10 mL of complete media and were plated onto four 10 cm dishes at the following ratios: 1:20, 1:10, 1:5, and 1:2. The cells were allowed to recover for 24 h before adding 600 μg G-418. Colonies that survived selection were grown and tested. SK-N-MC cells were used because they give efficient coupling for inhibition of adenylate cyclase. The clones that gave the most robust inhibition of adenylate cyclase in response to histamine were used for further study.
Cell pellets from histamine H3 receptor-expressing SK-N-MC cells were homogenized in 50 mM TrisHCl/0.5 mM EDTA. Supernatants from an 800 g spin were collected and were recentrifuged at 30,000 g for 30 min. Pellets were re-homogenized in 50 mM Tris/5 mM EDTA (pH 7.4). Membranes were incubated with 0.8 nM [^3H]-N-methylhistamine plus/minus test compounds for 60 min at 25° C. and were harvested by rapid filtration over GF/C glass fiber filters (pretreated with 0.3% polyethylenimine) followed by four washes with buffer. Filters were added to 5 mL of scintillation cocktail, and the signal was then counted on a liquid scintillation counter.

[4] = Pharmacokinetics and bioanalysis in the rat; type: in vivo, male Sprague Dawley Rats; settings: for AUC(0-inf): read-out: AUCINF (h-μmol/mL)
Protocol: One group of six male Sprague Dawley Rats (approx. 300 g body weight; three animals per time point) was used. They were group-housed, provided food and water ad libitum, and were maintained on a 12-h light and dark cycle. Animals were acclimatized for at least 7 days after receipt from the vendor prior to investigations.
For oral dosing, test compounds were formulated at 1 mg/mL in 0.5% hydroxypropyl methyl cellulose and delivered at a dose of 10 mg/kg. Citric acid salt forms (prepared as described for Example 1B) of the test compounds were used. Animals received a bolus dose of 10 mg/kg (10 mL/kg) for each compound via a 16 gauge intragastric gavage. For intravenous dosing, test compounds were formulated at 1 mg/mL in 5% dextrose in water and dosed at 1 mg/kg (1 mL/kg) with a bolus intravenous dose via a 24-gauge Terumo® Surflo® catheter in the lateral tail vein. All dosing solutions were prepared immediately prior to injection.
Blood samples (250 μL) were taken from the lateral tail vein into heparinized Natelson blood collection tubes and expelled into 1.5 mL mcirocentrifuge tubes. The blood samples were centrifuged for 5 min at 14,000 rpm in a micro-centrifuge. Plasma was retained and kept in a −20° C. freezer until analysis by LC-MS/MS.
Data analysis was performed using WinNonlin version 3.3 or 4.0.1. A non -compartmental model (#200 for Extravascular administration and #201 for i.v.) was used to determine the pharmacokinetic parameters shown in Tables 4 and 5 (NA=not applicable or not determined).

[5] = compared with isopropyl / cyclobutyl analogs
[6] = male, Sprague Dawley, iv, i.v. 1 mg/kg, citric acid salt, plasma
[7] = male, Sprague Dawley, oral 10 mg/kg, citric acid salt, plasma
[8] = oral 10 mg/kg, citric acid salt

T1 sequence (Q9Y5N1 whole entry): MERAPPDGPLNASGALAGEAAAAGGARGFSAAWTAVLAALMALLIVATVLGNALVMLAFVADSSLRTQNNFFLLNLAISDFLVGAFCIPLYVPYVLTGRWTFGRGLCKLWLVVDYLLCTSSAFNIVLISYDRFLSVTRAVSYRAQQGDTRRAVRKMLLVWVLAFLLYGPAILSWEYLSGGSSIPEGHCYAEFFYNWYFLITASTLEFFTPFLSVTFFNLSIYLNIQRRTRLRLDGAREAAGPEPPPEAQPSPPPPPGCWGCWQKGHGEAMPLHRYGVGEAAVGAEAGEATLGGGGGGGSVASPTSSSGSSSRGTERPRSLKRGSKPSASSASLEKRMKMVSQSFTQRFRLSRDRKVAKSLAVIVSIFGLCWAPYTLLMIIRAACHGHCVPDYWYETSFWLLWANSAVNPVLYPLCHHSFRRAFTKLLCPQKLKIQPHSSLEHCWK

SMILES	Kb [1] [nM]	logD [2]	logP [2]	pKa [2]	pKa ([2]; second value)	Ki [3] [nM]	CI ([4]; i.v. 1 mg/kg, citric acid salt) [mL/min/kg]	Cmax [4, 6] [nM]	AUC(0-inf) [4, 6] [µM·h]	Cmax [4, 7] [nM]	Tmax [4, 7] [h]	half-life [4, 7] [h]	AUC(0-inf) [4, 7] [µM·h]	CI [4, 8] [mL/min/kg]	Vd [4, 8] [L/kg]	other results
O=C(c1ccc(CN2CCOCC2)cc1)N1CCN(C2CCC2)CC1 [Comparative Example 2, (4-Cyclobutyl-piperazin-1-yl)-(4-morpholin-4-ylmethyl-phenyl) -methanone]	0.316	1.77	2.09	7.4	6.5	1										
O=C(O)CC(O)(CC(=O)O)C(=O)O.O=C(c1ccc(CN2CCC(F)CC2)cc1)N1CCN(C2CC2)CC1 [Example 2B, (4-Cyclopropyl-piperazin-1-yl)-[4-(4-fluoro-piperidin-1-ylmethyl)-phenyl]-methanone citrate salt]	1					2	41.4	3780	1.37	420	1.67	2.72	1.91	431	112	half-life (T1/2) relative to the comparative examples [4, 5]: shorter T1/2; volume of distribution (Vd) relative to the comparative examples [4, 5]: lower Vd; half-life [4, 6]: 1.11 h; Vd ([4]; male, Sprague Dawley, plasma, iv, i.v. 1 mg/kg, citric acid salt, read-out: Vd): 3.94 L/kg
O=C(c1ccc(CN2CCC(F)CC2)cc1)N1CCN(C2CCC2)CC1 [Comparative Example 4, (4-Cyclobutyl-piperazin-1-yl)-[4-(4-fluoro-piperidin-1-ylmethyl)-phenyl]-methanone]	0.1					0.7										
CC(C)N1CCN(C(=O)c2ccc(CN3CCC(F)CC3)cc2)CC1.O=C(O)CC(O)(CC(=O)O)C(=O)O [Comparative Example 3B, [4-(4-Fluoro-piperidin-1-ylmethyl)-phenyl]-(4-isopropyl-piperazin-1-yl)-methanone citrate salt]	0.251					1	44.2	1490	1.16	160	1.33	8.22	1.95	270	180	Vd ([4]; i.v. 1 mg/kg, citric acid salt): 29.2 L/kg; T1/2 ([4]; i.v. 1 mg/kg, citric acid salt, plasma): 7.60 h
CC(C)N1CCN(C(=O)c2ccc(CN3CCOC(CO)C3)cc2)CC1 (stereo not drawn) [Comparative Example 6, [4-(2-Hydroxymethyl-morpholin-4-ylmethyl)-phenyl]-(4-isopropyl-piperazin-1-yl)-methanone]	6.31					6										
O=C(c1ccc(CN2CCOCC2)cc1)N1CCN(C2CC2)CC1 [Example 1, (4-Cyclopropyl-piperazin-1-yl)-(4-morpholin-4-ylmethyl-phenyl) -methanone]	3.98	0.86	0.89	6.5	5.3	5.4										measured pKa (basicity) relative to calculated value and to isopropyl / cyclobutyl amine analogs [2]: significantly lower; also recorded: significant decrease in basicity
